# Test results: the kinase profiling compilation of Christmann-Franck et al. (2016)
# What was measured:
# Assay in all cases: radiometric filter-binding kinase assay, Kinase HotSpot
# Details in all cases: compound 0.5 µM; ATP 10 µM
# ACVR1 (human) = ACVR1 (human) (UniProt Q04771)
# ROCK2 (human) = ROCK2 (human) (UniProt O75116)
# FLT3 (human) = FLT3 (human) (UniProt P36888)
# AURKA (human) = AURKA (human) (UniProt O14965)
# ULK1 (human) = ULK1 (human) (UniProt O75385)
# FGFR2 (human) = FGFR2 (human) (UniProt P21802)
# MATK (human) = MATK (human) (UniProt P42679)
# CLK4 (human) = CLK4 (human) (UniProt Q9HAZ1)
# DAPK3 (human) = DAPK3 (human) (UniProt O43293)
# CDK1 CCNB1 (human) = CDK1 CCNB1 (human) (UniProt P06493+P14635)
# BLK (human) = BLK (human) (UniProt P51451)
# BMX (human) = BMX (human) (UniProt P51813)
# EPHB1 (human) = EPHB1 (human) (UniProt P54762)
# PLK2 (human) = PLK2 (human) (UniProt Q9NYY3)
# CAMK2G (human) = CAMK2G (human) (UniProt Q13555)
# TEC (human) = TEC (human) (UniProt P42680)
# EPHA3 (human) = EPHA3 (human) (UniProt P29320)
# PAK3 (human) = PAK3 (human) (UniProt O75914)
# FLT1 (human) = FLT1 (human) (UniProt P17948)
# MARK3 (human) = MARK3 (human) (UniProt P27448)
# BRSK2 (human) = BRSK2 (human) (UniProt Q8IWQ3)
# EPHA2 (human) = EPHA2 (human) (UniProt P29317)
# PRKG2 (human) = PRKG2 (human) (UniProt Q13237)
# DYRK4 (human) = DYRK4 (human) (UniProt Q9NR20)
# CHEK2 (human) = CHEK2 (human) (UniProt O96017)
# MAP2K2 (human) = MAP2K2 (human) (UniProt P36507)
# MERTK (human) = MERTK (human) (UniProt Q12866)
# DAPK2 (human) = DAPK2 (human) (UniProt Q9UIK4)
# JAK3 JH1 JH2 (human) = JAK3 JH1 JH2 (human) (UniProt P52333)
# ULK2 (human) = ULK2 (human) (UniProt Q8IYT8)
# CAMK4 (human) = CAMK4 (human) (UniProt Q16566)
# GRK5 (human) = GRK5 (human) (UniProt P34947)
# MAPK9 (human) = MAPK9 (human) (UniProt P45984)
# MAP4K5 (human) = MAP4K5 (human) (UniProt Q9Y4K4)
# NTRK2 (human) = NTRK2 (human) (UniProt Q16620)
# PRKCD (human) = PRKCD (human) (UniProt Q05655)
# STK33 (human) = STK33 (human) (UniProt Q9BYT3)
# PAK2 (human) = PAK2 (human) (UniProt Q13177)
# LCK (human) = LCK (human) (UniProt P06239)
# NLK (human) = NLK (human) (UniProt Q9UBE8)
# DSTYK (human) = DSTYK (human) (UniProt Q6XUX3)
# PRKCG (human) = PRKCG (human) (UniProt P05129)
# Sequence of GRK5 (human) (P34947 whole entry, looked up): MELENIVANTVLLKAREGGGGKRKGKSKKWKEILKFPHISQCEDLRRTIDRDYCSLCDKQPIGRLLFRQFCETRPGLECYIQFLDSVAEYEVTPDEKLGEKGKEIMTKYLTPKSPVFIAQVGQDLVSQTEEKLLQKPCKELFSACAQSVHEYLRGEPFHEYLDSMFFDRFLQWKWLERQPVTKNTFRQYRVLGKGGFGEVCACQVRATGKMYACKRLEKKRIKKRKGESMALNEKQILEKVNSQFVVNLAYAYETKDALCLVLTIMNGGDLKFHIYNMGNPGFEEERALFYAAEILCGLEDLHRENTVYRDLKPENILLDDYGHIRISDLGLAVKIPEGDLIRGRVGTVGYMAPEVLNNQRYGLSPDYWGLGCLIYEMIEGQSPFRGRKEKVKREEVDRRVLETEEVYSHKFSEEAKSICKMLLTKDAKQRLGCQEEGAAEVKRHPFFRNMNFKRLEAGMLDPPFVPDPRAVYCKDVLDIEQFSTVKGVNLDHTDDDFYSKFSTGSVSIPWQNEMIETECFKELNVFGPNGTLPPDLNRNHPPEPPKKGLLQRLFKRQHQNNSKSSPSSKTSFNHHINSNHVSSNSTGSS
# Sequence of EPHA2 (human) (P29317 whole entry, looked up): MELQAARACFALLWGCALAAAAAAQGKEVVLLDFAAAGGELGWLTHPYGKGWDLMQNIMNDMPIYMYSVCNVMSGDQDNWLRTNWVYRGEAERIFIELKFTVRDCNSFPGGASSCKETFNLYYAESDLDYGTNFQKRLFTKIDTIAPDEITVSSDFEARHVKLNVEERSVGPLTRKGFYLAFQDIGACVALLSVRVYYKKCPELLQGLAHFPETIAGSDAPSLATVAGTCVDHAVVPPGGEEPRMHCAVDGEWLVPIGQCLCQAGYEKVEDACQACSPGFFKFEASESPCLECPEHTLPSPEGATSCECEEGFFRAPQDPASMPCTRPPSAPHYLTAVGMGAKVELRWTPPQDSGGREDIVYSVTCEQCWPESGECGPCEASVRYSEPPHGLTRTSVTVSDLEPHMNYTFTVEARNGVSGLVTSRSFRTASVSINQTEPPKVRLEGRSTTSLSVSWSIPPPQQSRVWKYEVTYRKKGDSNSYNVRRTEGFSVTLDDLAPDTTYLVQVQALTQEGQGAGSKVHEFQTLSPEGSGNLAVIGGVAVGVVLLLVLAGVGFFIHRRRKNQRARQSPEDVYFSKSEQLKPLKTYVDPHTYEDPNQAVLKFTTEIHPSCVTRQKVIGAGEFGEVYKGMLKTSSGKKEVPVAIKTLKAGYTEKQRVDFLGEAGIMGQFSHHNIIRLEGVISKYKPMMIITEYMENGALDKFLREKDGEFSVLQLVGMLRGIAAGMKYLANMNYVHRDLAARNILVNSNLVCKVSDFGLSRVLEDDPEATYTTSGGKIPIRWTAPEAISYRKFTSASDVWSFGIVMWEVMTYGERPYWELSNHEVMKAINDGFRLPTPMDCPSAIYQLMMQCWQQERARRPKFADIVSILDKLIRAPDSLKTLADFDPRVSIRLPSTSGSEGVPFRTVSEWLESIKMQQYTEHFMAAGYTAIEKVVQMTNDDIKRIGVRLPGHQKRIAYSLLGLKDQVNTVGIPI
# Sequence of CAMK4 (human) (Q16566 whole entry, looked up): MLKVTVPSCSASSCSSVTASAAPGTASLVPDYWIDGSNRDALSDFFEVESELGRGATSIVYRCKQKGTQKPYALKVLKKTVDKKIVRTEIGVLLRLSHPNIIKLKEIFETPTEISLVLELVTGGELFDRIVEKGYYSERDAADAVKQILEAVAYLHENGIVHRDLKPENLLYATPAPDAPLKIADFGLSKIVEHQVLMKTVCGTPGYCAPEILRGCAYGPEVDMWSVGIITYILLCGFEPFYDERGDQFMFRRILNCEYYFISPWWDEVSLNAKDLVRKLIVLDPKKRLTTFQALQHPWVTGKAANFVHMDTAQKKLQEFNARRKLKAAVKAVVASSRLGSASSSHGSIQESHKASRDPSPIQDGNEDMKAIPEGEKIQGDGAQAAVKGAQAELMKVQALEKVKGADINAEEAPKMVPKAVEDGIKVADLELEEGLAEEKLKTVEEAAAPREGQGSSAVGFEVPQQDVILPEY
# Sequence of PRKCD (human) (Q05655 whole entry, looked up): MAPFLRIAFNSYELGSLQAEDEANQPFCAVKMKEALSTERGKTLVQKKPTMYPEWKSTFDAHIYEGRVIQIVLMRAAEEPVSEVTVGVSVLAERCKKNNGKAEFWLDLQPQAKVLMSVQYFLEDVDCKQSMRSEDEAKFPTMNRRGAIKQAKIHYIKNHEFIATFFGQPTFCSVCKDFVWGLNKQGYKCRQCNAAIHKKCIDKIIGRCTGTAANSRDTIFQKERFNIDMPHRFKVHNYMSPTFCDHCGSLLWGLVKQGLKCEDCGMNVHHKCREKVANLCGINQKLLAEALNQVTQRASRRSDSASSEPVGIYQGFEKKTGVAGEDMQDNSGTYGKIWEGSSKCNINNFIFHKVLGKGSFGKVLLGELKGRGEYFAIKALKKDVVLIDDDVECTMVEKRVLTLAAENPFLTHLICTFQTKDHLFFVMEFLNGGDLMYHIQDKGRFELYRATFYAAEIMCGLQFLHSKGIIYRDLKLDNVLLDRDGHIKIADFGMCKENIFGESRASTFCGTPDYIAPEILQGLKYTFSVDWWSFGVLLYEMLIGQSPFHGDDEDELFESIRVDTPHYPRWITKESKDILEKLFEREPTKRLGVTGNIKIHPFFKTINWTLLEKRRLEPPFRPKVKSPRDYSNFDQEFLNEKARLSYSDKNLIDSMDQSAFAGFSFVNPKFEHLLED
# Sequence of DAPK3 (human) (O43293 whole entry, looked up): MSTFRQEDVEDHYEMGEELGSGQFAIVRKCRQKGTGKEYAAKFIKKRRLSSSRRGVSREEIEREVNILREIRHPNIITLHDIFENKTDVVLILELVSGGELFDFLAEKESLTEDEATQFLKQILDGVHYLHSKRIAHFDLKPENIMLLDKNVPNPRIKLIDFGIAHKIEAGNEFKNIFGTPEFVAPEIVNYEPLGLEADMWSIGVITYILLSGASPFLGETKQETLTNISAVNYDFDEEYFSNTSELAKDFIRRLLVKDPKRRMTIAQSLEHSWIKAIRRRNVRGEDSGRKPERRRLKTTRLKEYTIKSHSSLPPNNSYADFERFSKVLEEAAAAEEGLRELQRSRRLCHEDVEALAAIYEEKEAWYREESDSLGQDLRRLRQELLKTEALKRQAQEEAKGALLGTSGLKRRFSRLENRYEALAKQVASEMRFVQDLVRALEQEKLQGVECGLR
# Sequence of ULK1 (human) (O75385 whole entry, looked up): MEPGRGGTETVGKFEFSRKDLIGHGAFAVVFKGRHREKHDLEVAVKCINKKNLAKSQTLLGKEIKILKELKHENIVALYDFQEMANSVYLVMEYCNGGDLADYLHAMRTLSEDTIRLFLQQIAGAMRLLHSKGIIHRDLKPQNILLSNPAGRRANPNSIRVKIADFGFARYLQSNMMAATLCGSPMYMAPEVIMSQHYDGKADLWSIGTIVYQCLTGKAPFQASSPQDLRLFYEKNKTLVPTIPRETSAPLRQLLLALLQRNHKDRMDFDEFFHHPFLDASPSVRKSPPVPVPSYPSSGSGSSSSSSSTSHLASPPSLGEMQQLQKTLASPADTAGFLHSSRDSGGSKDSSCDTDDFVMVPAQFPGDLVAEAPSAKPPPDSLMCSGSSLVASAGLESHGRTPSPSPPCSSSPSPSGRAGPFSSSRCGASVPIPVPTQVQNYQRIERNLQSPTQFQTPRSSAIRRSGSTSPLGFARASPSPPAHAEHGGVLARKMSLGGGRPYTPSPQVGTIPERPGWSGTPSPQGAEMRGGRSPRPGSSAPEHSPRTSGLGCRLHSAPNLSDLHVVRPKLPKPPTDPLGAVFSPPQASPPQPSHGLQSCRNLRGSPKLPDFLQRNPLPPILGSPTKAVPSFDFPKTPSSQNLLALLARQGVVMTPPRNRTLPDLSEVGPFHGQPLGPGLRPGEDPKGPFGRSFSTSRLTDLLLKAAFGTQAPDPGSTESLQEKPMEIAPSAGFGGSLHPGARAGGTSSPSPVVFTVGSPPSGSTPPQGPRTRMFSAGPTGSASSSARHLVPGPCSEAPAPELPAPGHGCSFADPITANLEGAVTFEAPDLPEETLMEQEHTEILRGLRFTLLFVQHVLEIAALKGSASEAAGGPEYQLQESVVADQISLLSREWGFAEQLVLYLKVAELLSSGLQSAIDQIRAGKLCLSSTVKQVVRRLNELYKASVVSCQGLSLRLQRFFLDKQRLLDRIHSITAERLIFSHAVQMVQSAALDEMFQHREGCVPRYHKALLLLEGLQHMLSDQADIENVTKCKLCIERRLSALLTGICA
# Sequence of CHEK2 (human) (O96017 whole entry, looked up): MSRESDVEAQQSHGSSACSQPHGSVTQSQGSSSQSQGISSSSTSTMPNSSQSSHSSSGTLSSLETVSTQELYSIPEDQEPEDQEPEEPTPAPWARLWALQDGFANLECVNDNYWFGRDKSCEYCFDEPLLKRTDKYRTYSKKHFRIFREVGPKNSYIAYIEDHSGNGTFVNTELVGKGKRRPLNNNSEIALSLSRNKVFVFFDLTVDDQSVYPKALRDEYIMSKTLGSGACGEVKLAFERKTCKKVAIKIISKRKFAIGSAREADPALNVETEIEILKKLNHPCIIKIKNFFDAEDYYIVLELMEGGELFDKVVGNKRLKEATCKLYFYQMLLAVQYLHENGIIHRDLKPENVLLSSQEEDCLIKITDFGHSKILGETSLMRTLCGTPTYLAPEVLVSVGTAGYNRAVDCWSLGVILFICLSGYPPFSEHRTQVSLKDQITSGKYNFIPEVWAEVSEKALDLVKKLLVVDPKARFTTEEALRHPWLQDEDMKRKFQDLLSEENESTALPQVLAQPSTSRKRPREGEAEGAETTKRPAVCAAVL
smiles,measurement,setting,value
N#CC(C#N)=C(N)/C(C#N)=C/c1ccc(O)cc1,residual activity,ACVR1 (human),93.8%
same,residual activity,ROCK2 (human),98.3%
same,residual activity,FLT3 (human),92.2%
same,residual activity,AURKA (human),89.6%
same,residual activity,ULK1 (human),89.3%
same,residual activity,FGFR2 (human),102%
same,residual activity,MATK (human),92.5%
same,residual activity,CLK4 (human),101%
same,residual activity,DAPK3 (human),91.1%
same,residual activity,CDK1 CCNB1 (human),111%
same,residual activity,BLK (human),101%
same,residual activity,BMX (human),80%
same,residual activity,EPHB1 (human),88.3%
same,residual activity,PLK2 (human),99.9%
same,residual activity,CAMK2G (human),89.4%
same,residual activity,TEC (human),94.7%
same,residual activity,EPHA3 (human),98.3%
same,residual activity,PAK3 (human),98.4%
same,residual activity,FLT1 (human),90.7%
same,residual activity,MARK3 (human),96.5%
same,residual activity,BRSK2 (human),101%
same,residual activity,EPHA2 (human),100%
same,residual activity,PRKG2 (human),86.9%
same,residual activity,DYRK4 (human),107%
same,residual activity,CHEK2 (human),95.5%
same,residual activity,MAP2K2 (human),103%
same,residual activity,MERTK (human),93.5%
same,residual activity,DAPK2 (human),95.7%
same,residual activity,JAK3 JH1 JH2 (human),102%
same,residual activity,ULK2 (human),105%
same,residual activity,CAMK4 (human),97.2%
same,residual activity,GRK5 (human),113%
same,residual activity,MAPK9 (human),105%
same,residual activity,MAP4K5 (human),99.6%
same,residual activity,NTRK2 (human),95.4%
same,residual activity,PRKCD (human),93.7%
same,residual activity,STK33 (human),93.2%
same,residual activity,PAK2 (human),86%
same,residual activity,LCK (human),95.1%
same,residual activity,NLK (human),96.7%
same,residual activity,DSTYK (human),92.9%
same,residual activity,PRKCG (human),105%
COc1cc2ncnc(Nc3cccc(Cl)c3)c2cc1OC,residual activity,ACVR1 (human),108%
same,residual activity,ROCK2 (human),92.6%
same,residual activity,FLT3 (human),37.6%
same,residual activity,AURKA (human),93.3%
same,residual activity,ULK1 (human),84.7%
same,residual activity,FGFR2 (human),97.5%
same,residual activity,MATK (human),103%
same,residual activity,CLK4 (human),98.2%
same,residual activity,DAPK3 (human),94.6%
same,residual activity,CDK1 CCNB1 (human),90.3%
same,residual activity,BLK (human),68.2%
same,residual activity,BMX (human),88.6%
same,residual activity,EPHB1 (human),82.8%
same,residual activity,PLK2 (human),102%
same,residual activity,CAMK2G (human),97.3%
same,residual activity,TEC (human),126%
same,residual activity,EPHA3 (human),97.9%
same,residual activity,PAK3 (human),98.9%
same,residual activity,FLT1 (human),74.4%
same,residual activity,MARK3 (human),89.8%
same,residual activity,BRSK2 (human),96.7%
same,residual activity,EPHA2 (human),85.2%
same,residual activity,PRKG2 (human),92.2%
same,residual activity,DYRK4 (human),91.7%
same,residual activity,CHEK2 (human),79.7%
same,residual activity,MAP2K2 (human),102%
same,residual activity,MERTK (human),76.9%
same,residual activity,DAPK2 (human),93.3%
same,residual activity,JAK3 JH1 JH2 (human),91.6%
same,residual activity,ULK2 (human),103%
same,residual activity,CAMK4 (human),94.4%
same,residual activity,GRK5 (human),105%
same,residual activity,MAPK9 (human),92.2%
same,residual activity,MAP4K5 (human),59.5%
same,residual activity,NTRK2 (human),93.3%
same,residual activity,PRKCD (human),86.4%
same,residual activity,STK33 (human),88.3%
same,residual activity,PAK2 (human),90.7%
same,residual activity,LCK (human),74.9%
same,residual activity,NLK (human),83.1%
same,residual activity,DSTYK (human),90.8%
same,residual activity,PRKCG (human),105%
